Patent US20200405696A1, “INHIBITORS OF INDOLEAMINE 2,3-DIOXYGENASE AND/OR TRYPTOPHAN 2,3-DIOXYGENASE” (IDORSIA PHARMACEUTICALS LTD, priority 2018, published 2020)

How the values were obtained:
[1] = target: T1, Recombinant full-length human IDO1 (Homo sapiens, UniProt P14902); experiment: IDO1 enzymatic assay (NFK quantified by LCMS); format: biochemical; conditions: 2 nM enzyme, 5 μM L-tryptophan, pH6.5, 30 minutes pre-incubation at RT; mean values when measured multiple times; read-out: hIDO activity (IC50 in nM)
T1 construct: Recombinant full-length human IDO1 with a N-terminal hexahistidine tag; hexahistidine (His6) (N); made in house; host or cells: E. coli
Summary of the method: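 His-tagged human IDO1 (2 nM) in pH 6.5 phosphate buffer with ascorbate, methylene blue and catalase was preincubated with compound (10 μM–0.5 nM, 0.6% DMSO) for 30 min at RT. The reaction then ran with 5 μM L-Trp for 30 min. NFK was measured by LCMS against a d5-Trp standard, and IC50 was obtained by four-parameter fit.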

[2] = target: T2, Recombinant human TDO comprising amino acids 19-407 (Homo sapiens, UniProt P48775); experiment: TDO2 enzymatic assay (NFK quantified by LCMS); format: biochemical; conditions: 15 nM enzyme, 200 μM L-tryptophan, pH7, 30 minutes pre-incubation at RT; mean values when measured multiple times; read-out: hTDO activity (IC50 in nM)
T2 construct: Recombinant human TDO comprising amino acids 19-407 with a N-terminal hexahistidine tag; hexahistidine (His6) (N); made in house; host or cells: E. coli
Summary of the method: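 NFK formed over 30 min at RT from 200 μM L-tryptophan was measured by LCMS, normalized to d5-tryptophan, after compound (0.5 nM–10 μM, duplicates, 0.6% DMSO) was preincubated 30 min with 15 nM recombinant His-tagged TDO 19-407 in phosphate buffer pH 7. IC50 from four-parameter logistic fit; repeats averaged.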

T2 sequence (P48775 19-406 limits assumed): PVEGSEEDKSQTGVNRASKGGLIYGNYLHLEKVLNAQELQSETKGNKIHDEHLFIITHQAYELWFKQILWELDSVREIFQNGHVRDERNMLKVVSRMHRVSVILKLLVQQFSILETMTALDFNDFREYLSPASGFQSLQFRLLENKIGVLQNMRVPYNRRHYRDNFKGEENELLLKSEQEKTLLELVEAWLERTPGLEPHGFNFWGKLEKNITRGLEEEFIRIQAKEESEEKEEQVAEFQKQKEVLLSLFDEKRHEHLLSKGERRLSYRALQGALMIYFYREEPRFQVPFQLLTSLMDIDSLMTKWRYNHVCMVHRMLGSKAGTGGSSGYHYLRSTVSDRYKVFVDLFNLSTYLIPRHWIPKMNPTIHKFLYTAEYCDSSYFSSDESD
T1 sequence (P14902 whole entry): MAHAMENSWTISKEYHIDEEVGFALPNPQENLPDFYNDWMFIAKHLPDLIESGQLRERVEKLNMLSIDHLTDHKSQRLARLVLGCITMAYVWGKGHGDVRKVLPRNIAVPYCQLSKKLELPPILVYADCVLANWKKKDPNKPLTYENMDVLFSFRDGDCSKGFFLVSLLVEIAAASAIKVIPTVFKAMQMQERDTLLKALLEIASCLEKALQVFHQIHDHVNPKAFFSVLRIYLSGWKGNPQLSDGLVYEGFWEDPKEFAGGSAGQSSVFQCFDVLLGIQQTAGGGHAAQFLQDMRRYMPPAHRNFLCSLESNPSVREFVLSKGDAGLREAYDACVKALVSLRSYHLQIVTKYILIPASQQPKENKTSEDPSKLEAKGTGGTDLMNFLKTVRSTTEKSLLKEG

SMILES	IC50 [1] [nM]	IC50 [2] [nM]
CCOc1ncc(-n2cc(C(O)c3c(C4CC4)sc4cncn34)nn2)cn1 (racemic) [Example 65, rac-(2-Cyclopropyl-imidazo[5,1-b]thiazol-3-yl)-[1-(2-ethoxy-pyrimidin-5-yl)-1H-[1,2,3]triazol-4-yl]-methanol]	14.2	> 10200
COc1ccc(-n2cc(C(O)c3c(C4CC4)sc4cncn34)nn2)nc1OC (racemic) [Example 66, rac-(2-Cyclopropyl-imidazo[5,1-b]thiazol-3-yl)-[1-(5,6-dimethoxy-pyridin-2-yl)-1H-[1,2,3]triazol-4-yl]-methanol]	200	> 10200
COc1ncc(-n2cc(C(O)c3c(C4CC4)sc4cncn34)nn2)cn1 (racemic) [Example 67, rac-(2-Cyclopropyl-imidazo[5,1-b]thiazol-3-yl)-[1-(2-methoxy-pyrimidin-5-yl)-1H-[1,2,3]triazol-4-yl]-methanol]	50.2	9160
Oc1ccc(-n2cc(C(O)c3c(C4CC4)sc4cncn34)nn2)cc1 (racemic) [Example 68, rac-4-{4-[(2-Cyclopropyl-imidazo[5,1-b]thiazol-3-yl)-hydroxy-methyl]-[1,2,3]triazol-1-yl}-phenol]	8.08	> 10200
COc1ccc(-n2cc(C(O)c3c(C4CC4)sc4cncn34)nn2)cn1 (racemic) [Example 69, rac-(2-Cyclopropyl-imidazo[5,1-b]thiazol-3-yl)-[1-(6-methoxy-pyridin-3-yl)-1H-[1,2,3]triazol-4-yl]-methanol]	22.7	> 10200
COC(=O)c1cc(-n2cc(C(O)c3c(C4CC4)sc4cncn34)nn2)cnc1OC (racemic) [Example 70, rac-5-{4-[(2-Cyclopropyl-imidazo[5,1-b]thiazol-3-yl)-hydroxy-methyl]-[1,2,3]triazol-1-yl}-2-methoxy-nicotinic acid methyl ester]	201	> 10200
COc1ncc(-n2cc(C(O)c3c(C4CC4)sc4cncn34)nn2)cc1C (racemic) [Example 71, rac-(2-Cyclopropyl-imidazo[5,1-b]thiazol-3-yl)-[1-(6-methoxy-5-methyl-pyridin-3-yl)-1H-[1,2,3]triazol-4-yl]-methanol]	55.9	> 10200
OC(c1cn(-c2cnc3c(c2)CCCO3)nn1)c1c(C2CC2)sc2cncn12 (racemic) [Example 72, rac-(2-Cyclopropyl-imidazo[5,1-b]thiazol-3-yl)-[1-(3,4-dihydro-2H-pyrano[2,3-b]pyridin-6-yl)-1H-[1,2,3]triazol-4-yl]-methanol]	35.5	> 10200
CC(C)Oc1ncc(-n2cc(C(O)c3c(C4CC4)sc4cncn34)nn2)cc1Cl (racemic) [Example 73, rac-[1-(5-Chloro-6-isopropoxy-pyridin-3-yl)-1H-[1,2,3]triazol-4-yl]-(2-cyclopropyl-imidazo[5,1-b]thiazol-3-yl)-methanol]	36.1	> 10200
CCOc1ncc(-n2cc(C(O)c3c(C4CC4)sc4cncn34)nn2)cc1Cl (racemic) [Example 74, rac-[1-(5-Chloro-6-ethoxy-pyridin-3-yl)-1H-[1,2,3]triazol-4-yl]-(2-cyclopropyl-imidazo[5,1-b]thiazol-3-yl)-methanol]	24.3	> 10200
COC(=O)COc1ccc(-n2cc(C(O)c3c(C4CC4)sc4cncn34)nn2)cn1 (racemic) [Example 75, rac-(5-{4-[(2-Cyclopropyl-imidazo[5,1-b]thiazol-3-yl)-hydroxy-methyl]-[1,2,3]triazol-1-yl}-pyridin-2-yloxy)-acetic acid methyl ester]	40.7	> 10200
CCOc1ncc(-n2cc(C(O)c3c(C4CC4)sc4cncn34)nn2)cc1C(F)(F)F (racemic) [Example 76, rac-(2-Cyclopropyl-imidazo[5,1-b]thiazol-3-yl)-[1-(6-ethoxy-5-trifluoromethyl-pyridin-3-yl)-1H-[1,2,3]triazol-4-yl]-methanol]	363	> 10200
OC(c1cn(-c2ccc(OCc3ccccc3)nc2)nn1)c1c(C2CC2)sc2cncn12 (racemic) [Example 77, rac-[1-(6-Benzyloxy-pyridin-3-yl)-1H-[1,2,3]triazol-4-yl]-(2-cyclopropyl-imidazo[5,1-b]thiazol-3-yl)-methanol]	32.7	> 10200
OC(c1cn(-c2ccc(OCC(F)(F)F)nc2)nn1)c1c(C2CC2)sc2cncn12 (racemic) [Example 78, rac-(2-Cyclopropyl-imidazo[5,1-b]thiazol-3-yl)-{1-[6-(2,2,2-trifluoro-ethoxy)-pyridin-3-yl]-1H-[1,2,3]triazol-4-yl}-methanol]	17.4	> 10200
COc1ncc(-n2cc(C(O)c3c(C4CC4)sc4cncn34)nn2)cc1F (racemic) [Example 79, rac-(2-Cyclopropyl-imidazo[5,1-b]thiazol-3-yl)-[1-(5-fluoro-6-methoxy-pyridin-3-yl)-1H-[1,2,3]triazol-4-yl]-methanol]	7.22	> 10200
COc1cc(-n2cc(C(O)c3c(C4CC4)sc4cncn34)nn2)cnc1OC (racemic) [Example 80, rac-(2-Cyclopropyl-imidazo[5,1-b]thiazol-3-yl)-[1-(5,6-dimethoxy-pyridin-3-yl)-1H-[1,2,3]triazol-4-yl]-methanol]	51.2	> 10200
COc1ccc(-n2cc(C(O)c3c(C4CC4)sc4cncn34)nn2)c(OC)n1 (racemic) [Example 81, rac-(2-Cyclopropyl-imidazo[5,1-b]thiazol-3-yl)-[1-(2,6-dimethoxy-pyridin-3-yl)-1H-[1,2,3]triazol-4-yl]-methanol]	36.1	> 10200
CC(C)Oc1ccc(-n2cc(C(O)c3c(C4CC4)sc4cncn34)nn2)cn1 (racemic) [Example 82, rac-(2-Cyclopropyl-imidazo[5,1-b]thiazol-3-yl)-[1-(6-isopropoxy-pyridin-3-yl)-1H-[1,2,3]triazol-4-yl]-methanol]	44.2	> 10200
OC(c1cn(-c2cnc(OC3CCC3)nc2)nn1)c1c(C2CC2)sc2cncn12 (racemic) [Example 83, rac-[1-(2-Cyclobutoxy-pyrimidin-5-yl)-1H-[1,2,3]triazol-4-yl]-(2-cyclopropyl-imidazo[5,1-b]thiazol-3-yl)-methanol]	10.9	> 10200
COc1ncc(-n2cc(C(O)c3c(C4CC4)sc4cncn34)nn2)c(OC)n1 (racemic) [Example 84, rac-(2-Cyclopropyl-imidazo[5,1-b]thiazol-3-yl)-[1-(2,4-dimethoxy-pyrimidin-5-yl)-1H-[1,2,3]triazol-4-yl]-methanol]	81.7	> 10200
OC(c1cn(-c2cnc(OCc3ccccc3)nc2)nn1)c1c(C2CC2)sc2cncn12 (racemic) [Example 85, rac-[1-(2-Benzyloxy-pyrimidin-5-yl)-1H-[1,2,3]triazol-4-yl]-(2-cyclopropyl-imidazo[5,1-b]thiazol-3-yl)-methanol]	11.5	> 10200
COc1cc(-n2cc(C(O)c3c(C4CC4)sc4cncn34)nn2)c(OC)nn1 (racemic) [Example 86, rac-(2-Cyclopropyl-imidazo[5,1-b]thiazol-3-yl)-[1-(3,6-dimethoxy-pyridazin-4-yl)-1H-[1,2,3]triazol-4-yl]-methanol]	23.1	> 10200
OC(c1cn(-c2ccc(OCC3CCOCC3)cc2)nn1)c1c(C2CC2)sc2cncn12 (racemic) [Example 87, rac-(2-Cyclopropyl-imidazo[5,1-b]thiazol-3-yl)-{1-[4-(tetrahydro-pyran-4-ylmethoxy)-phenyl]-1H-[1,2,3]triazol-4-yl}-methanol]	20.7	> 10200
OC(c1cn(-c2ccc(OCC3COC3)cc2)nn1)c1c(C2CC2)sc2cncn12 (racemic) [Example 88, rac-(2-Cyclopropyl-imidazo[5,1-b]thiazol-3-yl)-{1-[4-(oxetan-3-ylmethoxy)-phenyl]-1H-[1,2,3]triazol-4-yl}-methanol]	12.6	> 10200
OC(c1cn(-c2ccc(OCCN3CCCCC3)cc2)nn1)c1c(C2CC2)sc2cncn12 (racemic) [Example 89, rac-(2-Cyclopropyl-imidazo[5,1-b]thiazol-3-yl)-{1-[4-(2-piperidin-1-yl-ethoxy)-phenyl]-1H-[1,2,3]triazol-4-yl}-methanol]	204	> 10200
OC(c1cn(-c2ccc(OCC3CCCO3)cc2)nn1)c1c(C2CC2)sc2cncn12 (racemic) [Example 90, rac-(2-Cyclopropyl-imidazo[5,1-b]thiazol-3-yl)-{1-[4-(tetrahydro-furan-2-ylmethoxy)-phenyl]-1H-[1,2,3]triazol-4-yl}-methanol]	18.7	> 10200
COCCOc1ccc(-n2cc(C(O)c3c(C4CC4)sc4cncn34)nn2)cc1 (racemic) [Example 91, rac-(2-Cyclopropyl-imidazo[5,1-b]thiazol-3-yl)-{1-[4-(2-methoxy-ethoxy)-phenyl]-1H-[1,2,3]triazol-4-yl}-methanol]	12.9	> 10200
